We go through 11 molecules from article PMC6965176, “Targeting Forward and Reverse EphB4/EFNB2 Signaling by a Peptide with Dual Functions” (Scientific Reports, 2020).

Non-standard residues stand in square brackets, D forms with d. Residues, ends and D or L forms follow the SMILES beside them. No end group written: not given here.

One data set concerns the target T1, EphB4 (Homo sapiens, UniProt P54760).
T1 construct: purchased R&D Systems
T1 sequence (P54760 16-987): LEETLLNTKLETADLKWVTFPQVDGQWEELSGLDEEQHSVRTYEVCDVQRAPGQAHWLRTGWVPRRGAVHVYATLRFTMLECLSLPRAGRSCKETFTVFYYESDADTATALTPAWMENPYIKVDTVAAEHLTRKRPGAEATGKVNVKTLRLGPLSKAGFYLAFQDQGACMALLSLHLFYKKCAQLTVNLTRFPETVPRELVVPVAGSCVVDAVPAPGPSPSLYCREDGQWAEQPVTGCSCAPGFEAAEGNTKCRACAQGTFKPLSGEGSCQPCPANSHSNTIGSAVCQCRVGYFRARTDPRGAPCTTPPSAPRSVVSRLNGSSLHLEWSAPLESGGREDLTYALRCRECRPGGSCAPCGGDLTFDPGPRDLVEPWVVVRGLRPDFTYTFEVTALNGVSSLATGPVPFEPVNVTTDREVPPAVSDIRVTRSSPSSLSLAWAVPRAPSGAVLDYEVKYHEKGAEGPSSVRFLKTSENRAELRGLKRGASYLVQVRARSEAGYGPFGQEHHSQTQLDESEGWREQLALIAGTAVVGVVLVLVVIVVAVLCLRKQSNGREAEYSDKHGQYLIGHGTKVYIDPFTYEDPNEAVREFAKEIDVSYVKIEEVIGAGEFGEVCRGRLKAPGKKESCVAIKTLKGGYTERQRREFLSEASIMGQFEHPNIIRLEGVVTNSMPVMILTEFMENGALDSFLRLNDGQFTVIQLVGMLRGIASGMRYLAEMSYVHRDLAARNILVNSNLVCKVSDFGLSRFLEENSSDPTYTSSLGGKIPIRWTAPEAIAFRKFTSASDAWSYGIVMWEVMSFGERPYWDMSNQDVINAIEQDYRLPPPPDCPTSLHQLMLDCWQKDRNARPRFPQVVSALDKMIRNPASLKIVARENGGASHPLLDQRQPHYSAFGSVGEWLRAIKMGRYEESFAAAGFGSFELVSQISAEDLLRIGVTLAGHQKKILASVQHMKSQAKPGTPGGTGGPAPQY
The data set can be described thus: SPR (BIACore) binding of peptides to immobilized EphB4. The settings on record: Table S1; SPR BIACore, EphB4 immobilized on CM5 chip, 25°C, HBSEP buffer pH 7.4, peptides 1.6-800 nM, duplicate, KD = Koff/Kon, 1:1 Langmuir model. The text has this: Surface plasmon resonance (SPR) binding and competition assays.
Immunoblotting, immunoprecipitation, and co-immunoprecipitation.
(Surface plasmon resonance follows binding to a sensor surface in real time, without labels.)

The conditions of data set [1]: systemic exposure; cited from earlier work. The text has this: Our group previously employed CCPM successfully to improve pharmacokinetics and enhance peptide stability for in vivo imaging applications[28]–[31]. The cross-linked core of CCPM prevents premature micelle disintegration, while the brush-like polyethylene glycol forms a dense protective layer on the micelle surface that minimizes micelle uptake by the organs of the mononuclear phagocytic system.

The target in a further data set is T2, recombinant human EphB4 (human, UniProt P54760 16-539).
T2 construct: EphB4 (ephrin type-B receptor 4), human, recombinant; Amine-coupled to CM5 chips for SPR; a soluble extracellular form is likely; In the functional rows it stands for the EphB4 of the ovarian cancer cells; also called rhEphB4; source: bought: R&D Systems
T2 sequence (looked up): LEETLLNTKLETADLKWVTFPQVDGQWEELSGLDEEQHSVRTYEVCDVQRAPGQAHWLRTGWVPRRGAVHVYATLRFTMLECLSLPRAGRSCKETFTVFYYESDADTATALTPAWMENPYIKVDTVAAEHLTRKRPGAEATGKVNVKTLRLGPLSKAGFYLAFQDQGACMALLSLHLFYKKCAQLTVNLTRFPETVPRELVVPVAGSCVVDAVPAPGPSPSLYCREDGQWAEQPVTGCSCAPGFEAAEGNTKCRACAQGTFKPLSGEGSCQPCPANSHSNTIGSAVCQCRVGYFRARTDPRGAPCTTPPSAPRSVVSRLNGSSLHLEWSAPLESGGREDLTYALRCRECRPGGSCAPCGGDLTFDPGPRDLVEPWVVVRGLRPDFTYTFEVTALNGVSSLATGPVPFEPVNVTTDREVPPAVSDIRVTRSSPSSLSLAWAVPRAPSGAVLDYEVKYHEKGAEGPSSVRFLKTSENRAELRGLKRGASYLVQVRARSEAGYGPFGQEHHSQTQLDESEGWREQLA
Kind of data set: SPR; BIACore 3000; rhEphB4 amine-coupled to CM5 chips; peptides injected at 1.6 nM to 800 nM, 30 uL/min, in duplicate; 25 C; HBSEP buffer (0.01 M HEPES pH 7.4, 0.15 M NaCl, 3 mM EDTA, 0.005% P20); 1:1 Langmuir binding model, KD = Koff/Kon. The conditions noted are these: both partners purified.

Data set [2] deals with T3, EphB4, purified recombinant human (rhEphB4) (human, UniProt P54760 16-987). Kind of data set: SPR; competition: serial dilutions of BIDEN-AP (2 nM to 1000 nM) mixed with human EphB4 (30 nM) and injected onto EFNB2-Fc-coated CM-5 chips. The settings on record: both partners purified.
Data set [3] concerns the target T3, EphB4, purified recombinant human …. The data set can be described thus: SPR; EphB4 immobilised on sensor chips, peptides or CCPM-BIDEN-AP injected; BIACore 3000; BIDEN-AP data fitted to a 1:1 mass transfer interaction model; details in the Supplementary Information. The conditions noted are these: both partners purified.
A further data set concerns RF24 cells. The data set can be described thus: Tubule formation of immortalized endothelial cells on Matrigel. The conditions noted are these: BIDEN-AP 15 µM or EFNB2-Fc 2 nM, 24 h, number of nodes (Fig. 4A,B). It is filed as cell-based. On the procedure: Figure 4 BIDEN-AP–based agents inhibit tube formation and sensitize resistant endothelial cells to anti-VEGF antibody. (A,B) Tube formation by RF24 cells treated with EFNB2-Fc (2 nM) or BIDEN-AP (15 µM) compared to untreated controls (CTL). Representative data from three independent experiments are presented. (A) Representative microphotographs of tubes formed by RF24 cells are shown (n = 3). Images were taken at × 100 magnification. (B) Quantification of the number of nodes per field in three technical replicates. […] (C) Representative flow cytometry plots from three independent experiments of RF24_Bev cells are shown here. SYTOX-negative staining represents the live cell population.
Matrigel (Becton Dickinson, Bedford, MA) was used to assess formation of capillary-like structures by RF24 cells on a basement membrane. Twelve-well Costar plates (Corning, Corning, NY) were coated with Matrigel (10 mg/mL) according to the manufacturer’s instructions. RF24 cells (1.0 × 10^4 cells/well) were seeded on Matrigel-coated plates and incubated at 37 °C for 60 min. […] The degree of tubule formation was determined by the number of nodes. […] The nodes for each image were counted manually. Five images (×100 magnification) per treatment were counted double blindly. Data are expressed as a percentage of the number of tubes in untreated control wells.

Data set [4] has as its target T4, recombinant human EphB4 (human), P54760.
T4 chain: T2 sequence (looked up)
Kind of data set: SPR; BIACore 3000; rhEphB4 amine-coupled to CM5 chips; peptides injected at 1.6 nM to 800 nM, 30 uL/min, in duplicate; 25 C; HBSEP buffer (0.01 M HEPES pH 7.4, 0.15 M NaCl, 3 mM EDTA, 0.005% P20); 1:1 Langmuir binding model, KD = Koff/Kon.

In general, Kd refers to the free concentration of one partner at which half of the binding sites on the other are occupied at equilibrium, for simple one-to-one binding. Consider `CC[C@H](C)[C@H](NC(=O)[C@@H]1CCCN1C(=O)CNC(=O)[C@H](CC(N)=O)NC(=O)[C@@H]1CCCN1C(=O)[C@H](CO)NC(=O)[C@@H](Cc1ccccc1)NC(=O)[C@H](CC(C)C)NC(=O)[C@H](Cc1ccc(O)cc1)NC(=O)[C@H](CC(N)=O)NC(=O)[C@@H](N)[C@@H](C)O)C(=O)N[C@@H](C)C(=O)N[C@@H](CCCNC(=N)N)C(=O)N[C@@H](C)C(=O)N[C@@H](Cc1c[nH]c2ccccc12)C(N)=O` [B4-005] (H-TNYL[dF]SPNGPIARAW-NH2), for which binding on EphB4 was put at a Kd of 75 nM.
Same read-out and setting: under TNYLFSPNGPIARA-NH2 [B4-008] stands 13 nM.
Consider TNYLFSPNGPIARAW-NH2 [TNYL-RAW], for which, in data set [1], the “area-under-the time curve [AUC]” value is given as 29.1 %ID h/mL.
In turn, `CC[C@H](C)[C@H](NC(=O)[C@@H]1CCCN1C(=O)CNC(=O)[C@H](CC(N)=O)NC(=O)[C@@H]1CCCN1C(=O)[C@H](CO)NC(=O)[C@H](Cc1ccccc1)NC(=O)[C@@H](CC(C)C)NC(=O)[C@H](Cc1ccc(O)cc1)NC(=O)[C@H](CC(N)=O)NC(=O)[C@@H](N)[C@@H](C)O)C(=O)N[C@@H](C)C(=O)N[C@@H](CCCNC(=N)N)C(=O)N[C@@H](C)C(=O)N[C@@H](Cc1c[nH]c2ccccc12)C(N)=O` [B4-004] (H-TNY[dL]FSPNGPIARAW-NH2) had an equilibrium dissociation constant (Kd) at EphB4 of 65 nM.
On the same count and under the same terms, under `CC[C@H](C)[C@H](NC(=O)[C@@H]1CCCN1C(=O)CNC(=O)[C@H](CC(N)=O)NC(=O)[C@@H]1CCCN1C(=O)[C@H](CO)NC(=O)[C@H](Cc1ccccc1)NC(=O)[C@H](CC(C)C)NC(=O)[C@H](Cc1ccc(O)cc1)NC(=O)[C@H](CC(N)=O)NC(=O)[C@@H](N)[C@@H](C)O)C(=O)N[C@@H](C)C(=O)N[C@H](CCCNC(=N)N)C(=O)N[C@@H](C)C(=O)N[C@@H](Cc1c[nH]c2ccccc12)C(N)=O` [B4-002] stands 39 nM; under YSA-TNYL-RAW-dimer [B4-003], 21 nM.

B1: TNYL-RAW (peptide)
peptide: TNYLFSPNGPIARAW
notes: known EphB4 antagonist peptide, 15 residues (P1-P15); Made on Rink resin, so a C-terminal amide is likely; source: synthetic peptide (solid phase, Rink resin, HPLC purified)
As to B1, the equilibrium dissociation constant (Kd) in the data set with recombinant human EphB4 is 3.1 nM.

B2: BIDEN-AP (bi-directional ephrin agonist peptide), TNd(Y)LFSPNGPIARAW (peptide)
peptide: TN[dY]LFSPNGPIARAW
notes: TNYL-RAW with L-Tyr-P3 replaced by D-Tyr; source: synthetic peptide
The IC50 is the midpoint of a concentration-inhibition curve. Turning to B2, the IC50 in data set [2] was determined as 4 nM. The Kd in data set [3] worked out at 7 nM.

B3: Cyclo(KTNYLFSPNGPIARAWD) (peptide)
peptide: KTNYLFSPNGPIARAWD
modifications: also: cyclic, ring bond not given here
notes: TNYL-RAW with an added Lys before and Asp after it, cyclised; MW 1932 Da; also called B4-001; source: synthetic peptide (solid phase, Rink resin, HPLC purified)
As to B3, the Kd with recombinant human EphB4 came out at 4.4 nM.

B4: EFNB2-Fc: ephrin B2 ligand fused to Fc, natural ligand of EphB4 (protein)
chain: IVLEPIYWNSSNSKFLPGQGLVLYPQIGDKLDIICPKVDSKTVGQYEYYKVYMVDKDQADRCTIKKENTPLLNCAKPDQDIKFTIKFQEFSPNLWGLEFQKNKDYYIISTSNGSLEGLDNQEGGVCQTRAMKILMKVGQDASSAGSTRNKDPTRRPELEAGTNGRSSTTSPFVKPNPGSSTDGNSAGHSGNNILGSEVALFA
modifications: left off: Fc, end not stated, kept
notes: ephrin B2 ligand fused to Fc, natural ligand of EphB4
As to B4, the “formation of capillary-like tubes” value in the data set on RF24 cells is “significantly inhibited the formation of capillary-like tubes”.

B5: YSA-TNYL-RAW-dimer (peptide)
chain: TNYLFSPNGPIARAW
modifications: not checked
B5: the dissociation constant Kd in data set [4] was 21 nM.
